# Laboratory results from ChEMBL document CHEMBL1131774, “Synthesis of water-soluble phenytoin prodrugs” (Bioorg Med Chem Lett, 1999).
# Tests used:
# Format in all cases: ADME, organism-based
# Details in all cases: rat, read-out: Hydrolysis
# [1] = Compound was tested for percent hydrolysis in whole blood, after a time interval of 15.0 min
# [2] = Compound was tested for percent hydrolysis in whole blood after a time interval of 7.0 min
# [3] = Compound was tested for percent hydrolysis in whole blood after a time interval of 180.0 min
# [4] = Compound was tested for percent hydrolysis in whole blood after a time interval of 0.5 min
# [5] = Compound was tested for percent hydrolysis in whole blood after a time interval of 60.0 min
# [6] = Compound was tested for percent hydrolysis in whole blood after a time interval of 2.0 min
# [7] = Compound was tested for percent hydrolysis in whole blood after a time interval of 5.0 min
metabolised at 0.25 h [1],metabolised at 7 min [2],metabolised at 3 h [3],metabolised at 0.5 min [4],metabolised at 1 h [5],metabolised at 2 min [6],metabolised at 5 min [7],SMILES
37.2%,36.9%,45.1%,15%,39.6%,26.7%,–,CC(OC(=O)CCCC(=O)O)N1C(=O)NC(c2ccccc2)(c2ccccc2)C1=O (stereo unspecified)
93.6%,–,–,28.7%,99.3%,80.1%,91%,O=C(CN1CCOCC1)OCN1C(=O)NC(c2ccccc2)(c2ccccc2)C1=O
–,–,–,49.2%,–,96.5%,97.5%,O=C(CN1CCCCC1)OCN1C(=O)NC(c2ccccc2)(c2ccccc2)C1=O
55.9%,52.8%,69.2%,25.7%,59.6%,42.4%,–,CC(OC(=O)CCC(=O)O)N1C(=O)NC(c2ccccc2)(c2ccccc2)C1=O (stereo unspecified)
45.4%,25%,95.3%,7.95%,87.5%,11.6%,–,O=C1NC(c2ccccc2)(c2ccccc2)C(=O)N1COP(=O)(O)O [FOSPHENYTOIN SODIUM]
